From patent publication US20230357275A1, “SPIRO-SULFONAMIDE DERIVATIVES AS INHIBITORS OF MYELOID CELL LEUKEMIA-1 (MCL-1) PROTEIN” (Prelude Therapeutics, Incorporated, priority 2020, published 2023)

Columns and labels:
H929 cells = test: Cell viability assay (H929 10 FBS); format: cell-based; settings: Homo sapiens, NCI-H929, 24 hours, CellTiTer-Glo or ATPlite, read-out: H929_10FB S IC50
Procedure: Dispense 10 µL aliquot of prepared H929 cells (1:1 ratio of cells:Trypan Blue (#1450013, Bio-Rad)) onto cell counting slide (#145-0011, Bio-Rad) and obtain cell density and cell viability using cell counter (TC20, Bio-Rad). Remove appropriate volume of resuspended cells from culture flask to accommodate 4000 cells/well @ 10 µL/well. Transfer H929 cells to 50 mL conical (#430290, Corning). Spin down at 1000 rpm for 5 min using tabletop centrifuge (SPINCHRON 15, Beckman). Discard supernatant and resuspend cell pellet in modified RPMI 1640 (#10-040-CV, Coming) cell culture media containing 10% FBS (F2422-500 ML, Sigma), sodium pyruvate (100 mM) (#25-000-CL, Corning), HEPES buffer (1 M) (#25-060-CL, Coming) and glucose (200 g/L) (A24940-01, Gibco) to a cell density of 400,000 cells/mL. Dispense 10 µL of resuspended H929 cells per well in 384-well small volume TC treated plate (#784080, Greiner Bio-one) using standard cassette (#50950372, Thermo Scientific) on Multi-drop Combi (#5840310, Thermo Scientific) in laminar flow cabinet. Dispense compounds onto plates using digital liquid dispenser (D300E, Tecan). Incubate plates in humidified tissue culture incubator @ 37° C. for 24 hours. […] Read plates with microplate reader (PheraStar, BMG Labtech) using 384 well luminescence mode.

MCL-1 = target: T1, MCL-1 (Homo sapiens, UniProt Q07820); test: Cell free Mcl-1:Bim affinity assay (Mcl-1 Bim), fluorescence polarization competition; format: binding; settings: 15 nM MCL-1, 5 nM FITC-Bim tracer, 1 hour at room temperature; Ki calculated from IC50 by Nikolovska-Coleska's equation; read-out: BIM_ Ki
T1 construct: purchased BPS Bioscience
Procedure: The binding affinity of each compound was measured via a fluorescence polarization competition assay, in which the compound competes for the same binding site with the ligand, and thus leads to a dose-dependent anisotropy reduction. The tracer ligand utilized was a fluorescein isothiocyanate labelled peptide (FITC-[…]) derived from Bim (GenScript).
The assay was carried out in black half-area 96-well NBS plate (Coming), containing 15 nM of MCL-1 (BPS Bioscience), 5 nM of FITC-Bim and 3-fold serial diluted test compounds in a total volume of 50 µL of assay buffer (20 mM HEPES, 50 mM NaCl, 0.002% Tween 20, 1 mM TCEP, and 1% DMSO). The reaction plate was incubated for 1 hour at room temperature. The change of anisotropy is measured with an Envision multimode plate reader (PerkinElmer) at emission wavelength 535 nm. Fluorescence polarization was calculated in mP unit and the percentage inhibition was calculated by % inhibition = 100x(mPDMSO-mP)/(mPDMSO-mPPC), in which mPDMSO is the DMSO control, and mPPC is the positive control. IC50 values were determined from a 10-point dose response curve by fitting the percent inhibition against compound concentration using the GraphPad Prism software. The inhibition constant Ki was subsequently calculated according to the Nikolovska-Coleska’s equation (Anal. Biochem., 2004, 332, 261), […]

T1 sequence (Q07820 whole entry): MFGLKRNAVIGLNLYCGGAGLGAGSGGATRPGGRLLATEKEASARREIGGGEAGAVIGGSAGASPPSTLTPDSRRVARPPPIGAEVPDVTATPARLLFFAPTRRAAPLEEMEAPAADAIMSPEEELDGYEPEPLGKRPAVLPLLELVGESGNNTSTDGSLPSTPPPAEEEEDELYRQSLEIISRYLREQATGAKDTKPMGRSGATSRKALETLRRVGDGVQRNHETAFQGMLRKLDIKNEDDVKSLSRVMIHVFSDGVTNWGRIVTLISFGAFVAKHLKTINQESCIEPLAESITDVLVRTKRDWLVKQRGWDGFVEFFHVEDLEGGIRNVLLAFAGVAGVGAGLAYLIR

IC50 (H929 cells): < 500 nM
Ki (MCL-1): < 1 nM
Compound: CN(C)C(=O)O[C@H]1/C=C/COC(C)(C)C(=O)NS(=O)(=O)c2ccc3c(c2)N(C[C@@H]2CC[C@H]21)C[C@@]1(CCCc2cc(Cl)ccc21)CO3 [Example 34, [(3R,6R,7S,8E,22S)-6′-Chloro-12,12-dimethyl-13,15,15-trioxo-spiro [11,20-dioxa-15-thia-1,14-diazatetracyclo[14.7.2.03,6.019,24]pentacosa-8,16,18,24-tetraene-22,1′-tetralin]-7-yl] N,N-dimethylcarbamate]
